Source: EP4759807A1, “PROTEOLYSIS TARGETING CHIMERA COMPOUND FOR DEGRADING IRAK4 AND USE THEREOF” (Shenzhen Zhongge Biological Technology Co., Ltd., priority 2023, dated 2025)
Structures can show the parent of a compound that is named as a salt. Where two headings read alike, the source gives them in different places.

Biological target: T1, IRAK4 (Homo sapiens, UniProt Q9NWZ3)
T1 sequence (Q9NWZ3 1-460): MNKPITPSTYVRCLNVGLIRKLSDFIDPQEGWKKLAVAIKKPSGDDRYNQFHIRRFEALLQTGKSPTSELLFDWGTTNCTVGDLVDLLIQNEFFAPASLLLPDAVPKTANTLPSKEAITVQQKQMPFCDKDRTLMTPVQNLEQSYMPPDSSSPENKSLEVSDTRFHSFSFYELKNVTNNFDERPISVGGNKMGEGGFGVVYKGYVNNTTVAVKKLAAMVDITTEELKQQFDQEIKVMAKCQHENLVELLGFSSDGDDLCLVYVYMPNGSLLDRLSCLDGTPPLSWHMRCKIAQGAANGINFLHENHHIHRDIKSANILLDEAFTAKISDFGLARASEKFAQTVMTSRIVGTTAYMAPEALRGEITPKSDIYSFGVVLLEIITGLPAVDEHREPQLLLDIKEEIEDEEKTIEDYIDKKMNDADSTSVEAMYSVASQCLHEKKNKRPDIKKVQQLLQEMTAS
Test: Hibit fluorescence detection of proteolysis (IRAK4-HiBiT in HEK293T cells)
Type: cell-based
Design: host or cells: HEK293T (ATCC)
Summary of the method: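 Degradation read-out: luminescence from lytic HiBiT detection (15 min, room temperature) after 24 h compound exposure (37 °C, 5% CO2) of HEK293T cells transiently expressing IRAK4 fused to a HiBiT tag. Data fitted to a bell-shaped four-parameter model giving two EC50 values.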

[1] = IRAK4-HiBiT, HEK293T cells, 24 h
[2] = IRAK4-HiBiT, HEK293T cells, 24 h, read-out: DC50

SMILES: Cn1c(=O)n(C2CCC(=O)NC2=O)c2cccc(N3CCC4(CCN(C[C@H]5CC[C@H](n6cc(-n7cc(-c8cnn9ccc(N%10CCNCC%10)nc89)nn7)c(C(F)F)n6)CC5)CC4)CC3)c21 (stereo partly shown) [Example 129, 3-(4-(9-(((1r,4r)-4-(3-(difluoromethyl)-4-(4-(5-(piperazin-1-yl)pyrazolo[1,5-a]pyrimidin-3-yl)-1H-1,2,3-triazol-1-yl)-1H-pyrazol-1-yl)cyclohexyl)methyl)-3,9-diazaspiro[5.5]undecan-3-yl)-3-methyl-2-oxo-2,3-dihydro-1H-benzo[d]imidazol-1-yl)piperidine-2,6-dione dihydrochloride]
- Dmax (HEK-293T): > 80%
- DC50 [1]: < 500 pM

SMILES: Cn1c(=O)n(C2CCC(=O)NC2=O)c2cccc(N3CCC4(CCN(C[C@H]5CC[C@H](n6cc(-n7cc(-c8cnn9ccc(N%10CCNCC%10)nc89)nn7)c(C(F)F)n6)CC5)CC4)C3)c21 (stereo partly shown) [Example 130, 3-(4-(8-(((1r,4r)-4-(3-(difluoromethyl)-4-(4-(5-(piperazin-1-yl)pyrazolo[1,5-a]pyrimidin-3-yl)-1H-1,2,3-triazol-1-yl)-1H-pyrazol-1-yl)cyclohexyl)methyl)-2,8-diazaspiro[4.5]dec-2-yl)-3-methyl-2-oxo-2,3-dihydro-1H-benzo[d]imidazol-1-yl)piperidine-2,6-dione dihydrochloride]
- Dmax (HEK-293T): > 80%
- DC50 [1]: 500 to 1000 pM

SMILES: Cl.Cn1c(=O)n(C2CCC(=O)NC2=O)c2cccc(N3CCN(C4CCN(C[C@H]5CC[C@H](n6cc(-n7cc(-c8cnn9ccc(N%10CCNCC%10)nc89)nn7)c(C(F)F)n6)CC5)CC4)CC3)c21 (stereo partly shown) [Example 131, 3-(4-(4-(1-(1r,4r)-4-(3-difluoromethyl)-4-(4-(5-(piperazin-1-yl)pyrazolo[1,5-a]pyrimidin-3-yl)-1H-1,2,3-triazol-1-yl)-1H-pyrazol-1-yl)cyclohexyl)methyl)piperidin-4-yl)piperazin-1-yl)-3-methyl-2-oxo-2,3-dihydro-1H-benzoimidazol-1-yl)piperidine-2,6-dione hydrochloride]
- DC50 [2]: 500 to 1000 pM

SMILES: Cl.Cn1c(=O)n(C2CCC(=O)NC2=O)c2cccc(N3CCN(C4CCN(C[C@H]5CC[C@H](n6cc(-n7cc(-c8cnn9ccc(N%10CCNCC%10)nc89)nn7)c(C(F)F)n6)CC5)CC4)CC3)c21 (stereo partly shown) [Example 131]
- Dmax [1]: A (Dmax ≥ 80%)

SMILES: Cn1c(=O)n(C2CCC(=O)NC2=O)c2cccc(N3CCN(C4CCN(C[C@H]5CC[C@H](n6cc(-n7cc(-c8cnn9ccc(NCCC(C)(C)O)nc89)nn7)c(C(F)F)n6)CC5)CC4)CC3)c21 (stereo partly shown) [Example 133]
- Dmax (HEK-293T): > 80%
- DC50 [1]: < 500 pM

SMILES: Cn1c(=O)n(C2CCC(=O)NC2=O)c2cccc(N3CCC4(CCN(C[C@H]5CC[C@H](n6cc(-n7cc(-c8cnn9ccc(NCCC(C)(C)O)nc89)nn7)c(C(F)F)n6)CC5)C4)CC3)c21 (stereo partly shown) [Example 134]
- Dmax (HEK-293T): > 80%
- DC50 [1]: < 500 pM

SMILES: Cn1c(=O)n(C2CCC(=O)NC2=O)c2cccc(N3CCC4(CCN(CC5CCC(n6cc(-n7cc(-c8cnn9ccc(N%10CCC(O)CC%10)nc89)nn7)c(C(F)F)n6)CC5)CC4)C3)c21 (stereo not shown) [Example 137, 3-(4-(8-(((1r,4r)-4-(3-(difluoromethyl)-4-(4-(5-(4-hydroxypiperidin-1-yl))pyrazolo[1,5-a]pyrimidin-3-yl)-1H-1,2,3-triazol-1-yl)-1H-pyrazol-1-yl)cyclohexyl)methyl)-2,8-diazaspiro[4.5]dec-2-yl)-3-methyl-2-oxo-2,3-dihydro-1H-benzo[d]imidazol-1-yl)piperidine-2,6-dione]
- Dmax [1]: A (Dmax ≥ 80%)
- DC50 [2]: < 500 pM

SMILES: Cn1c(=O)n(C2CCC(=O)NC2=O)c2cccc(N3CCN(C4CCN(C[C@H]5CC[C@H](n6cc(-n7cc(-c8cnn9ccc(N%10CCC(O)CC%10)nc89)nn7)c(C(F)F)n6)CC5)CC4)CC3)c21 (stereo partly shown) [Example 138]
- Dmax (HEK-293T): > 80%
- DC50 [1]: < 500 pM

SMILES: Cn1c(=O)n(C2CCC(=O)NC2=O)c2cccc(N3CCC4(CCN(C[C@H]5CC[C@H](n6cc(-n7cc(-c8cnn9ccc(N%10CCC[C@H](O)C%10)nc89)nn7)c(C(F)F)n6)CC5)CC4)C3)c21 (stereo partly shown) [Example 143]
- Dmax (HEK-293T): > 80%
- DC50 [1]: < 500 pM

SMILES: Cn1c(=O)n(C2CCC(=O)NC2=O)c2cccc(N3CCN(C4CCN(C[C@H]5CC[C@H](n6cc(-n7cc(-c8cnn9ccc(N[C@H]%10CCCC[C@H]%10O)nc89)nn7)c(C(F)F)n6)CC5)CC4)CC3)c21 (stereo partly shown) [Example 149]
- Dmax (HEK-293T): > 80%
- DC50 [1]: < 500 pM

SMILES: Cn1c(=O)n(C2CCC(=O)NC2=O)c2cccc(N3CCC(N4CCN(C[C@H]5CC[C@H](n6cc(-n7cc(-c8cnn9ccc(N%10CCC[C@H](N)C%10)nc89)nn7)c(C(F)F)n6)CC5)CC4)CC3)c21 (stereo partly drawn) [Example 150, 3-(4-(4-(1R,4R)-4-(4-(4-(5-(S)-3-aminopiperidin-1-yl)pyrazolo[1,5-a]pyrimidin-3-yl)-1H-1,2,3-triazol-1-yl)-3-(difluoromethyl)-1H-pyrazol-1-yl)cyclohexyl)methyl)piperazin-1-yl)piperidin-1-yl)-3-methyl-2-oxo-2,3-dihydro-1H-benzoimidazol-1-yl)piperidine-2,6-dione hydrochloride]
- Dmax (HEK-293T): > 80%
- DC50 [1]: < 500 pM

SMILES: Cn1c(=O)n(C2CCC(=O)NC2=O)c2cccc(N3CCC4(CCN(C[C@H]5CC[C@H](n6cc(-n7cc(-c8cnn9ccc(N[C@@H]%10CCCC[C@@H]%10O)nc89)nn7)c(C(F)F)n6)CC5)CC4)C3)c21 (stereo partly shown) [Example 152]
- Dmax (HEK-293T): > 80%
- DC50 [1]: < 500 pM

SMILES: C[C@H]1CN(c2cccc3c2n(C)c(=O)n3C2CCC(=O)NC2=O)CCN1C[C@H]1CC[C@H](n2cc(-n3cc(-n4ccc5cc(C(N)=O)cnc54)nn3)c(C(F)F)n2)CC1 (stereo partly shown) [Example 156]
- Dmax (HEK-293T): > 80%
- DC50 [1]: < 500 pM

SMILES: Cn1c(=O)n(C2CCC(=O)NC2=O)c2cccc(N3CCN(C[C@H]4CC[C@H](n5cc(-n6cc(-c7cnn8ccc(N[C@@H]9CCCC[C@@H]9O)nc78)nn6)c(C(F)F)n5)CC4)CC3)c21 (stereo partly shown) [Example 268]
- Dmax (HEK-293T): 70 to 80%
- DC50 [1]: 500 to 1000 pM

SMILES: C[C@H]1CN(c2cccc3c2n(C)c(=O)n3C2CCC(=O)NC2=O)CCN1C[C@H]1CC[C@H](n2cc(-n3cc(-c4cnn5ccc(N6CCC(C)(O)CC6)nc45)nn3)c(C(F)F)n2)CC1 (stereo partly shown) [Example 284]
- Dmax (HEK-293T): 70 to 80%
- DC50 [1]: < 500 pM
